Where two headings read alike, the source gives them in different places.
Key:
HIF/p300 complex = HIF/p300 complex (Homo sapiens, UniProt Q09472); conditions: cited from earlier work
[1] = system: 786-O xenografts (renal cell carcinoma); experiment: Mouse xenograft study, 786-O renal cell carcinoma; assay type: in vivo, mice
Method: Mouse xenograft study was conducted to evaluate the primary endpoint of efficacy (reduction in tumor volume of >50% as compared to control) and the secondary endpoint of survival (Kaplan-Meier). Tumors were established in the flank region and grown to about 100 mm^3 The mice were treated with compound 1 in the 786-O xenografts (renal cell carcinoma) at 1 mg/kg given IV. The compound was injected every fourth day for 45 days (a total of 11 injections, see following table).
All tumors were imaged at the end of the study and harvested for histopathology studies. Percentages of tumor volumes in control and compound 1—treated mice measured throughout the entire duration of the experiments. Error bars are ±SEM of each experimental group.
After the last treatment with compound 1, mice were injected with the tumor-targeting near-infrared (NIR) contrast agent IR-783, anesthetized and imaged on a Xenogen IVIS 200 small animal imager. The fluorescence output was processed with Living Image software with one representative sample for each group presented above.

Plasma protein binding = assay type: in vitro ADME
Log D7.4 measurement = assay type: physicochemical; conditions: pH 7.4; standard experimental conditions
Method: (§1) The Log D7.4 value of compound 1 was measured to be 2.69 under standard experimental conditions. Inhibition of multiple CYP was measured for compound 1 using standard CYP inhibition assays.

[2] = Intravenous pharmacokinetic study, observation for adverse symptoms; assay type: in vivo, male and female BALB/c mice; conditions: intravenous 1.0 mg/kg b.w., observed up to 24 hours post dose
Method: Non-fasted animals (Male and Female BALB/c mice or SD rats, ten groups, three animals per group) were administered with compound 1 in vehicle (5% (v/v) N,N-Dimethylacetamide, 50% (v/v) of 60% (w/v) Hydroxypropyl beta-Cyclodextrin, 45% (v/v) Sterile water for injection) by intravenous route with various doses 0.5, 1, 2.5, and 5 mg/kg body weight at dose volume of 10 mL/kg body weight. Under mild isoflurane anesthesia, blood specimens were collected into pre-labeled tubes containing anticoagulant (K2EDTA—2 mg/mL blood) at various time points (0.08, 0.16, 0.25, 0.50, 1.00, 2.00, 4.00, 6.00, 8.00 and 24.00 hours). Collected blood specimens were centrifuged at 4000 rpm, 4° C. for 10 minutes and plasma was separated and stored at −80° C. until analysis.

multiple CYP = experiment: Standard CYP inhibition assays; assay type: in vitro ADME; conditions: each assay
Method: as §1

[3] = Maximum tolerated dose study; assay type: in vivo, male BALB/c mice; conditions: for MTD at 14 days: male, BALB/c, mouse, in vivo
Method: Three groups of three animals (male BALB/c mice) were administered increasing doses of compound 1 every other day for 14 days and the animals checked daily for the signs of moribundity, mortality, vocalization, and gross weight or body shape abnormalities. Dose escalation of compound 1 was performed according to the “modified Fibonacci search” scheme, compound 1 (x=2 mg/kg) was dosed at 4, 6.6, 10, 14, 24 and 32 mg/kg on Days 0, 2, 4, 6, 8 and 10. […] An average MTD of 21.1 mg/kg for the three groups combined was determined from this study.

[4] = Human microsome stability; assay type: in vitro ADME
[5] = Oral pharmacokinetic study, bioavailability; assay type: in vivo; conditions: rat, plasma, 5 mg/kg b.w., Male SD rats
Method: Fasted animals (Male and Female BALB/c mice or SD rats, ten groups, three animals per group) were administered with compound 1 in vehicle (5% (v/v) N,N-Dimethylacetamide, 50% (v/v) of 60% (w/v) Sulfobutyl ether beta-cyclodextrin (SBEβCD) and 45% (v/v) Sterile water for injection) by oral route with a dose of 2.5, 5, and 10 mg/kg body weight at dose volume of 10 mL/kg b.w. Under mild isoflurane anesthesia, blood specimen were collected into pre-labeled tubes containing anticoagulant (K2EDTA—2 mg/mL blood) at various time points (0.08, 0.16, 0.25, 0.50, 1.00, 2.00, 4.00, 6.00, 8.00 and 24.00 hours). Collected blood specimens were centrifuged at 4000 rpm, 4° C. for 10 minutes and plasma was separated and stored at −80° C. until analysis.

HIF1a = conditions: cited from earlier work

Chain of HIF/p300 complex (Q09472 whole entry, one chain of several): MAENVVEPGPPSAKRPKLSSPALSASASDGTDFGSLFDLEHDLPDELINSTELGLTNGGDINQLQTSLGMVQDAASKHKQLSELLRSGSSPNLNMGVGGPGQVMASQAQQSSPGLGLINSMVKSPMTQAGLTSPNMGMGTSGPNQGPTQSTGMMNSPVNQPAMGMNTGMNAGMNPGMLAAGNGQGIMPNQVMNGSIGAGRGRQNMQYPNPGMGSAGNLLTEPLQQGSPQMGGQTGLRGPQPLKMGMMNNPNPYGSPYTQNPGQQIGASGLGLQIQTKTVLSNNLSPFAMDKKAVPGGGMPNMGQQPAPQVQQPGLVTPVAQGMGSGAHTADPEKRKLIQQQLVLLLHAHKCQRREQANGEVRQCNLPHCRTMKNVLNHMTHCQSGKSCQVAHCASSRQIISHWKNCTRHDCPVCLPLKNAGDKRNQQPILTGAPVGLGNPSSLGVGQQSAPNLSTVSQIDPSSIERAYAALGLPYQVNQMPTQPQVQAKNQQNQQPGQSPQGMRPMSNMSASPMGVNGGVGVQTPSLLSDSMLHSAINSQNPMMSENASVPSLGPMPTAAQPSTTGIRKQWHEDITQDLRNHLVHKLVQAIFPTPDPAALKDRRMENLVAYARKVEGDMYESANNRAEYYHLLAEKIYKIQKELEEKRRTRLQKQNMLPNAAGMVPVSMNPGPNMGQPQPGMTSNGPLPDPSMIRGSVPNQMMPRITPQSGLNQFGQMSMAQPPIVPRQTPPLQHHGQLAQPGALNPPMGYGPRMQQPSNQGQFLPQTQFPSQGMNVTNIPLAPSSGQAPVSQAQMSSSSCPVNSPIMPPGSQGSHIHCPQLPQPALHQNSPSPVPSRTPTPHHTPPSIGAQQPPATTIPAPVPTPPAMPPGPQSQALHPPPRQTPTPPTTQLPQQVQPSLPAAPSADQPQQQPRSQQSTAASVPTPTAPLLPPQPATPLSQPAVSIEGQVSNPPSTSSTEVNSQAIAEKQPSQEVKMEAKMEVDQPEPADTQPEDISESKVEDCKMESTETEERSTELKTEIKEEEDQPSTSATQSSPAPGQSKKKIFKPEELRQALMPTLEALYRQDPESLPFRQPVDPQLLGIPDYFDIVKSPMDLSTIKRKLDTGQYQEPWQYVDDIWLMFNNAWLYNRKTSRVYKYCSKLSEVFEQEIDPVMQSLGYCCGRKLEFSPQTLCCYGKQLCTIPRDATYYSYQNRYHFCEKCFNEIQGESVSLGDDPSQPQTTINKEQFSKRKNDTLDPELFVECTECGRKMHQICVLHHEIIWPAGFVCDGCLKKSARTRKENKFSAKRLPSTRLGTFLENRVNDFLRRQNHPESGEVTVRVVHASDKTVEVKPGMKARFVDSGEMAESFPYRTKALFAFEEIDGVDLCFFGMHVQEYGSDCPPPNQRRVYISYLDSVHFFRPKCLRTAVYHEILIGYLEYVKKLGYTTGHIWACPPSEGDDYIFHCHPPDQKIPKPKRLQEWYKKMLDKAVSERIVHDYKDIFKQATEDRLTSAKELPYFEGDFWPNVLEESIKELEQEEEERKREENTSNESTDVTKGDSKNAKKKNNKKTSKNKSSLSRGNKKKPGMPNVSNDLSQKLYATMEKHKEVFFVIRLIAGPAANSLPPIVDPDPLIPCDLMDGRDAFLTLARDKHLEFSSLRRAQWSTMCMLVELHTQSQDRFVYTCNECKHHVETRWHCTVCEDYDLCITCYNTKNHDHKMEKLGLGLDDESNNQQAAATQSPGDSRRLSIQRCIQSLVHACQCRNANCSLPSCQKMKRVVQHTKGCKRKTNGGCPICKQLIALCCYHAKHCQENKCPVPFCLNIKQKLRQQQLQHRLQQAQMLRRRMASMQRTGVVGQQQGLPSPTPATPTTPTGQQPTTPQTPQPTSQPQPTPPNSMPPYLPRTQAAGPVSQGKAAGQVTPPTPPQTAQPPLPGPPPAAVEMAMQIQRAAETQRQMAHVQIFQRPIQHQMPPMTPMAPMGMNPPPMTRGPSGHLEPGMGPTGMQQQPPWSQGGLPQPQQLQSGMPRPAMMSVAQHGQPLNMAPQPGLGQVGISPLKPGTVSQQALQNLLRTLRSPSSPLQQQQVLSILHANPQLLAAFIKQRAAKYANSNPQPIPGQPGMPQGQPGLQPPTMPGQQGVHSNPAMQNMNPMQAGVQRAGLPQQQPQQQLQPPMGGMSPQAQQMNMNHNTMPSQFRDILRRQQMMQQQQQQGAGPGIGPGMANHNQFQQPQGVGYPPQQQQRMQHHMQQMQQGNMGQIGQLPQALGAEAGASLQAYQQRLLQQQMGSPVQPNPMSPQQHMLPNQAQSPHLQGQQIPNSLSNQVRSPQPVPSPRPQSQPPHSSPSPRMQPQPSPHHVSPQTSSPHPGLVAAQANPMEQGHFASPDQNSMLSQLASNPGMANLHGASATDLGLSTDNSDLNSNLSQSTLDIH

For `CN1C(=O)[C@]2(Cc3cn([C@]45C[C@@]67SS[C@@](CO)(C(=O)N6[C@H]4Nc4ccccc45)N(C)C7=O)c4ccccc34)SS[C@@]1(CO)C(=O)N2C` [chetomin], the “inhibition of the HIF/p300 complex” value (HIF/p300 complex) is listed as “potent and specific inhibition”.
With `CN1C(=O)[C@]2(Cc3ccc(CCc4ccc(C[C@@]56SS[C@@](CO)(C(=O)N5C)N(C)C6=O)cc4)cc3)SS[C@@]1(CO)C(=O)N2C` (racemic) [Compound 1, (±)-4,4′-((ethane-1,2-diylbis(4,1-phenylene))bis(methylene))bis(1-(hydroxymethyl)-5,7-dimethyl-2,3-dithia-5,7-diazabicyclo[2.2.2]octane-6,8-dione)] the “median tumor volume increase” value ([1]; 786-O xenografts in mice, 46 day experiment, control group 288%, P<0.01) was 113%, the “intensity of the NIR signal from tumor-accumulated contrast agent IR-783 compared to control group” value ([1]; after last treatment, Xenogen IVIS 200 imaging) was “significantly lower intensity” and the weight loss ([1]; during the 45 day experiment) was 5-8%. The plasma protein binding (Plasma protein binding) was “highly protein bound”, the logD (Log D7.4 measurement) was 2.69 and the “adverse symptoms after dosing” value [2] was “found to be normal”. The IC50 (multiple CYP) was over 5 µM, the signs of toxicity ([3]; 14 mg/kg dose, male BALB/c mice) was “no signs of toxicity” and the signs of toxicity ([3]; 24 mg/kg dose, male BALB/c mice) was “one animal exhibited signs of toxicity”. The “animals affected per group of three (quantity not given)” value ([3]; Dose 4 mg/kg, Group 1) was 0, the “animals affected per group of three (quantity not given)” value ([3]; Dose 4 mg/kg, Group 2) was 0 and the “animals affected per group of three (quantity not given)” value ([3]; Dose 4 mg/kg, Group 3) was 0. The “animals affected per group of three (quantity not given)” value ([3]; Dose 6.6 mg/kg, Group 1) was 0, the “animals affected per group of three (quantity not given)” value ([3]; Dose 6.6 mg/kg, Group 2) was 0 and the “animals affected per group of three (quantity not given)” value ([3]; Dose 6.6 mg/kg, Group 3) was 0. For the same compound, the “animals affected per group of three (quantity not given)” value ([3]; Dose 10 mg/kg, Group 1) was 0, the “animals affected per group of three (quantity not given)” value ([3]; Dose 10 mg/kg, Group 2) was 0 and the “animals affected per group of three (quantity not given)” value ([3]; Dose 10 mg/kg, Group 3) was 0. The “animals affected per group of three (quantity not given)” value ([3]; Dose 14 mg/kg, Group 1) was 0, the “animals affected per group of three (quantity not given)” value ([3]; Dose 14 mg/kg, Group 2) was 0 and the “animals affected per group of three (quantity not given)” value ([3]; Dose 14 mg/kg, Group 3) was 0. The “animals affected per group of three (quantity not given)” value ([3]; Dose 24 mg/kg, Group 1) was 0, the “animals affected per group of three (quantity not given)” value ([3]; Dose 24 mg/kg, Group 2) was 1 and the “animals affected per group of three (quantity not given)” value ([3]; Dose 24 mg/kg, Group 3) was 1. For the same compound, the “animals affected per group of three (quantity not given)” value ([3]; Dose 32 mg/kg, Group 1) was 3, the “animals affected per group of three (quantity not given)” value ([3]; Dose 32 mg/kg, Group 2) was 3 and the “animals affected per group of three (quantity not given)” value ([3]; Dose 32 mg/kg, Group 3) was 3. It also gave an MTD at 14 days ([3]; Group 1, read-out: MTD) of 25.3 mg/kg, an MTD at 14 days ([3]; Group 2, read-out: MTD) of 19 mg/kg and an MTD at 14 days ([3]; Group 3, read-out: MTD) of 19 mg/kg. The MTD at 14 days ([3]; three groups combined, male BALB/c mice, read-out: Average MTD) was 21.1 mg/kg, the “in vitro clearance, human microsome stability studies” value [4] was “favorable in vitro clearance” and the “human microsome stability T1/2” value ([4]; in the presence of co-factor) was “short”. It also gave a bioavailability [5] of 28%.
In the case of `COc1cc2c(cc1O)CC[C@@H]1[C@@H]2CC[C@]2(C)[C@@H](O)CC[C@@H]12` [2-methoxyestradiol], the “HIF1a levels in vitro” value (HIF1a) is given as “reduce HIFIa levels”.

— US20150284349A1 (priority 2013, published 2015)
